What was measured:
Type in all cases: physicochemical
[1] = Visible absorption spectrum (λmax, ε); conditions: for ε: in M-1 cm-1 (unit assumed)
[2] = Solubility in toluene and methyl ethyl ketone, three-point scale
Excerpt: In these tables, the solubility is rated on the three-point scale, wherein Δ stands for a solubility of less than 1% by weight, .largecircle. for a solubility in the approximate range of 1 to 3% by weight, and .circleincircle. for a solubility of not less than 3% by weight.

Color tone of the dye = conditions: Tables 1-9

| SMILES | λ max ([1]; in chloroform) | ε ([1]; in chloroform, at λ max) | Solubility in methyl ethyl ketone [2] | Solubility in toluene ([2]; in toluene) | Color tone (Color tone of the dye) | λ max ([1]; in methanol) | ε ([1]; in methanol) | λ max ([1]; in toluene) | ε ([1]; in toluene) | Solubility ([2]; in toluene) | ε ([1]; in ethyl cellosolve) |
| --- | --- | --- | --- | --- | --- | --- | --- | --- | --- | --- | --- |
| O=C1c2c(O)ccc(O)c2C(=O)c2c(F)c(Nc3ccccc3)c(F)c(F)c21 [(1)] | 533 nm | 14800 | Δ (a solubility of less than 1% by weight) | .largecircle. (a solubility in the approximate range of 1 to 3% by weight) | Magenta | – | – | – | – | – | – |
| CCOC(=O)c1cccc(Nc2c(F)c(F)c3c(c2F)C(=O)c2c(O)ccc(O)c2C3=O)c1 [(4)] | 527 nm | 15300 | .largecircle. (a solubility in the approximate range of 1 to 3% by weight) | .largecircle. (a solubility in the approximate range of 1 to 3% by weight) | Magenta | – | – | – | – | – | – |
| CCCCOC(=O)c1ccccc1Nc1c(F)c(F)c2c(c1F)C(=O)c1c(O)ccc(O)c1C2=O [(5)] | 530 nm | 8600 | .circleincircle. (a solubility of not less than 3% by weight) | .circleincircle. (a solubility of not less than 3% by weight) | Magenta | – | – | – | – | – | – |
| CCCCOC(=O)c1ccc(Nc2c(F)c(F)c3c(c2F)C(=O)c2c(O)ccc(O)c2C3=O)cc1 [(6)] | 528 nm | 17900 | .largecircle. (a solubility in the approximate range of 1 to 3% by weight) | .largecircle. (a solubility in the approximate range of 1 to 3% by weight) | Magenta | – | – | – | – | – | – |
| CCCCCCCCOC(=O)c1cccc(Nc2c(F)c(F)c3c(c2F)C(=O)c2c(O)ccc(O)c2C3=O)c1 [(8)] | 526 nm | 17600 | .largecircle. (a solubility in the approximate range of 1 to 3% by weight) | .largecircle. (a solubility in the approximate range of 1 to 3% by weight) | Magenta | – | – | – | – | – | – |
| N#Cc1ccc(Nc2c(F)c(F)c3c(c2F)C(=O)c2c(O)ccc(O)c2C3=O)cc1 [(10)] | 523 nm | 20600 | Δ (a solubility of less than 1% by weight) | Δ (a solubility of less than 1% by weight) | Magenta | – | – | – | – | – | – |
| O=C1c2c(O)ccc(O)c2C(=O)c2c(F)c(Nc3ccc([N+](=O)[O-])cc3)c(F)c(F)c21 [(12)] | 521 nm | 16300 | Δ (a solubility of less than 1% by weight) | Δ (a solubility of less than 1% by weight) | Magenta | – | – | – | – | – | – |
| CC(C)(C)c1ccc(Nc2c(F)c(F)c3c(c2F)C(=O)c2c(O)ccc(O)c2C3=O)cc1 [(13)] | 540 nm | 11900 | .largecircle. (a solubility in the approximate range of 1 to 3% by weight) | .largecircle. (a solubility in the approximate range of 1 to 3% by weight) | Magenta | – | – | – | – | – | – |
| COc1ccccc1Nc1c(F)c(F)c2c(c1F)C(=O)c1c(O)ccc(O)c1C2=O [(14)] | 557 nm | 15300 | .largecircle. (a solubility in the approximate range of 1 to 3% by weight) | .largecircle. (a solubility in the approximate range of 1 to 3% by weight) | Purple | – | – | – | – | – | – |
| COc1ccc(Nc2c(F)c(F)c3c(c2F)C(=O)c2c(O)ccc(O)c2C3=O)cc1 [(15)] | 542 nm | 10200 | .largecircle. (a solubility in the approximate range of 1 to 3% by weight) | .largecircle. (a solubility in the approximate range of 1 to 3% by weight) | Magenta | – | – | – | – | – | – |
| COc1cccc(Nc2c(F)c(F)c3c(c2F)C(=O)c2c(O)ccc(O)c2C3=O)c1 [(16)] | 532 nm | 16300 | .largecircle. (a solubility in the approximate range of 1 to 3% by weight) | .largecircle. (a solubility in the approximate range of 1 to 3% by weight) | Magenta | – | – | – | – | – | – |
| CCc1cccc(CC)c1Nc1c(F)c(F)c2c(c1F)C(=O)c1c(O)ccc(O)c1C2=O [(18)] | 528 nm | 14200 | .largecircle. (a solubility in the approximate range of 1 to 3% by weight) | .circleincircle. (a solubility of not less than 3% by weight) | Magenta | – | – | – | – | – | – |
| CC(C)c1cccc(C(C)C)c1Nc1c(F)c(F)c2c(c1F)C(=O)c1c(O)ccc(O)c1C2=O [(25)] | 530 nm | 12800 | .largecircle. (a solubility in the approximate range of 1 to 3% by weight) | .circleincircle. (a solubility of not less than 3% by weight) | Magenta | – | – | – | – | – | – |
| O=C1c2c(O)ccc(O)c2C(=O)c2c(F)c(Nc3ccc(S(=O)(=O)O)cc3)c(F)c(F)c21 [(27)] | – | – | – | – | – | 521.5 nm | 10600 | – | – | – | – |
| CCCCCCCCOc1c(F)c2c(c(F)c1Nc1cccc(C(=O)OCC)c1)C(=O)c1c(O)ccc(O)c1C2=O [(34)] | 531 nm | 12400 | .circleincircle. (a solubility of not less than 3% by weight) | .circleincircle. (a solubility of not less than 3% by weight) | Magenta | – | – | – | – | – | – |
| CC(C)c1cccc(C(C)C)c1Nc1ccc2c(c1)C(=O)c1c(O)ccc(O)c1C2=O [(99)] | – | – | – | – | – | – | – | 560 nm | 14850 | Not less than 3 % by weight | – |
| O=C1c2c(O)ccc(O)c2C(=O)c2c(F)c(Oc3ccccc3)c(Nc3c(Cl)cccc3Cl)c(F)c21 [(110)] | 521.0 nm | 17900 | – | – | – | – | – | – | – | – | – |
| CCOC(=O)c1cccc(Nc2c(F)c3c(c(F)c2Sc2ccccc2)C(=O)c2c(O)ccc(O)c2C3=O)c1 [(115)] | 540 nm | 17000 | – | – | – | – | – | – | – | – | – |
| CCCCNc1c(F)c(F)c2c(c1F)C(=O)c1c(O)ccc(O)c1C2=O [(117)] | 533 nm | 17900 | .largecircle. (a solubility in the approximate range of 1 to 3% by weight) | .largecircle. (a solubility in the approximate range of 1 to 3% by weight) | Magenta | – | – | – | – | – | – |
| O=C1c2c(O)ccc(O)c2C(=O)c2c(F)c(NC3CCCCC3)c(F)c(F)c21 [(119)] | 536 nm | 24500 | .largecircle. (a solubility in the approximate range of 1 to 3% by weight) | .largecircle. (a solubility in the approximate range of 1 to 3% by weight) | Magenta | – | – | – | – | – | – |
| O=C1c2c(O)ccc(O)c2C(=O)c2c(F)c(Nc3ccccc3)c(Nc3ccccc3)c(F)c21 [(120)] | 648 nm | 19800 | Δ (a solubility of less than 1% by weight) | Δ (a solubility of less than 1% by weight) | Cyan | – | – | – | – | – | – |
| CCOC(=O)c1cccc(Nc2c(F)c3c(c(F)c2Nc2cccc(C(=O)OCC)c2)C(=O)c2c(O)ccc(O)c2C3=O)c1 [(121)] | 644 nm | 20100 | .largecircle. (a solubility in the approximate range of 1 to 3% by weight) | .largecircle. (a solubility in the approximate range of 1 to 3% by weight) | Cyan | – | – | – | – | – | – |
| CCCCOC(=O)c1ccccc1Nc1c(F)c2c(c(F)c1Nc1ccccc1C(=O)OCCCC)C(=O)c1c(O)ccc(O)c1C2=O [(122)] | 614 nm | 14700 | .largecircle. (a solubility in the approximate range of 1 to 3% by weight) | .largecircle. (a solubility in the approximate range of 1 to 3% by weight) | Blue | – | – | – | – | – | – |
| N#Cc1ccc(Nc2c(F)c3c(c(F)c2Nc2ccc(C#N)cc2)C(=O)c2c(O)ccc(O)c2C3=O)cc1 [(126)] | 605 nm | 16600 | Δ (a solubility of less than 1% by weight) | Δ (a solubility of less than 1% by weight) | Blue | – | – | – | – | – | – |
| CC(C)(C)c1ccc(Nc2c(F)c3c(c(F)c2Nc2ccc(C(C)(C)C)cc2)C(=O)c2c(O)ccc(O)c2C3=O)cc1 [(130)] | 660 nm | 26700 | .largecircle. (a solubility in the approximate range of 1 to 3% by weight) | .largecircle. (a solubility in the approximate range of 1 to 3% by weight) | Cyan | – | – | – | – | – | – |
| COc1ccccc1Nc1c(F)c2c(c(F)c1Nc1ccccc1OC)C(=O)c1c(O)ccc(O)c1C2=O [(131)] | 661 nm | 15600 | .largecircle. (a solubility in the approximate range of 1 to 3% by weight) | .largecircle. (a solubility in the approximate range of 1 to 3% by weight) | Cyan | – | – | – | – | – | – |
| COc1ccc(Nc2c(F)c3c(c(F)c2Nc2ccc(OC)cc2)C(=O)c2c(O)ccc(O)c2C3=O)cc1 [(132)] | 649 nm | 13400 | .largecircle. (a solubility in the approximate range of 1 to 3% by weight) | .largecircle. (a solubility in the approximate range of 1 to 3% by weight) | Cyan | – | – | – | – | – | – |
| CC(C)c1cccc(C(C)C)c1Nc1c(F)c2c(c(Nc3c(C(C)C)cccc3C(C)C)c1Nc1c(C(C)C)cccc1C(C)C)C(=O)c1c(O)ccc(O)c1C2=O [Dye (245), 5,6,7-tris(2,6-diisopropylanilino)-8-fluoroquinizarin] | – | – | – | – | – | – | – | – | – | – | 29200 |

Reference: patent US5608091A, “Quinizarin compound, method for production thereof, and use therefor” (Nippon Shokubai Co., Ltd., priority 1993, dated 1997)
